Paper PMC4372538, “Advantages of the Phosphatidylserine-Recognizing Peptide PSP1 for Molecular Imaging of Tumor Apoptosis Compared with Annexin V” (PLoS ONE, 2015)
Entries after “also recorded” stand apart in the source; their conditions may differ. Where no end group is shown, it is not given here.

Tests used:
H460 cells = assay: apoptosis induction in H460 cells, annexin V/PI staining; conditions: etoposide 50 μM
H460 tumors = assay: TUNEL staining of tumors; assay type: in vivo, BALB/c nude mice; human H460 tumor; conditions: camptothecin 10 mg/kg single dose
Method: (§1) Female nude mice (BALB/c nude; body weight, 20±3 g; n = 5) were housed in a specific pathogen-free environment at 22±2°C and 55±5% relative humidity with light. Tumors were generated by subcutaneously injecting H460 cells (5×10^6 cells) into the right shoulder of 6-wk-old female BALB/c nude mice and allowing them to grow for 3 weeks (size of 0.5 to 0.7 cm). For in vivo analysis of tumor targeting, the tumor-bearing mice were either treated or not treated with a single dose of camptothecin (10 mg/kg) 24 hrs prior to intravenous injection of Cy7.5-labeled PSP1, Cy7.5-annexin V or Cy7.5-labeled control peptide into the tail vein under inhalational anesthesia (1% (w/v) isoflurane in 2 L oxygen).
At the 6 hr time point, the animals were euthanized with CO2, and tumor tissues were removed from a subset of animals. The tumor tissues were then fixed by incubating with 4% paraformaldehyde (PFA) overnight, followed by freezing for cryosectioning and immunohistochemical studies under a fluorescence microscope (Zeiss, Oberkochen, Germany). Apoptosis in the tumor tissues was assessed by […] terminal deoxynucleotidyl transferase-mediated dUTP nick-end labelling (TUNEL) staining in accordance with the manufacturer’s instructions (Chemicon Int., Temecula, CA, USA).

apoptotic H460 cells [1] = assay: FACS binding to apoptotic H460 cells; assay type: cell-based, human; conditions: FITC-labeled; for binding of PSP1 mutants to apoptotic H460 cells (FACS): 10 μg/ml, vs PSP1, 4°C, n = 3
Method: (§2) The human lung cancer cell H460, which was obtained from the American Type Culture Collection (ATCC), was maintained in RPMI-1640 media supplemented with 10% heat-inactivated fetal bovine serum (FBS) and penicillin G/streptomycin at 37°C in a humidified atmosphere of 95% air and 5% CO2.
(§3) To induce apoptosis of lung tumor cells (H460), the cells (5×10^6 cell) were grown overnight and then treated with etoposide (50 μM) (Sigma) in serum-free media for 22 hrs, followed by washing with phosphate-buffered saline (PBS) and binding buffer (10 mM Hepes (pH 7.4), 150 mM NaCl, and 2 mM CaCl2).
(§4) Control peptide (grey); FITC-NSSSVDK.

[2] = system: apoptotic tumor cells in H460 tumor-bearing mice; assay: in vivo fluorescence imaging of tumors after apoptosis induction; set-up: species or system BALB/c nude mice; human H460 tumor; conditions: for in vivo tumor homing: i.v., camptothecin-treated H460 tumor-bearing mice, n = 5, imaging 10 min to 12 h, PSP1 10 μg/200 μl, annexin V and control peptide 100 μg/200 μl
Method: as §1
In vivo fluorescence images were taken at different time intervals after peptide injection (10 min, 1 h, 3 h, 6 h, and 12 h) using an eXplore Optix system (ART Advanced Research Technologies Inc., Montreal, Canada), which has excitation/emission wavelengths of 778 nm/805 nm. The obtained images were processed using eXplore Optix OptiView Software and normalized based on the baseline fluorescence, assessed for each mouse prior to peptide injection.
Fig 4 In vivo imaging of tumors after apoptosis induction. (A) Cy7.5-labelled PSP1peptide, control peptide, or annexin V was systematically injected into the tail vein of tumor-bearing nude mice treated with camptothecin 24 hrs before injection. The same amount of annexin V was also injected into non-camptothecin-treated tumor-bearing mice as a control. The homing of the peptides was examined after the indicated times using an optical imaging system. The white dotted circles indicate the tumors. (B) Histological examination of tumor tissues after homing of PSP1 and annexin V, performed under a fluorescence microscope. Tumor cell apoptosis was observed by TUNEL staining.

[3] = system: apoptotic cells in tumor tissue; assay: histological examination of tumor tissues after in vivo homing; set-up: species or system BALB/c nude mice; human H460 tumor; conditions: Cy7.5-labeled, i.v., tumors removed at 6 hr, camptothecin-treated mice
Method: At the 6 hr time point, the animals were euthanized with CO2, and tumor tissues were removed from a subset of animals. The tumor tissues were then fixed by incubating with 4% paraformaldehyde (PFA) overnight, followed by freezing for cryosectioning and immunohistochemical studies under a fluorescence microscope (Zeiss, Oberkochen, Germany). Apoptosis in the tumor tissues was assessed by […] terminal deoxynucleotidyl transferase-mediated dUTP nick-end labelling (TUNEL) staining in accordance with the manufacturer’s instructions (Chemicon Int., Temecula, CA, USA).  Fig 4 In vivo imaging of tumors after apoptosis induction. (A) Cy7.5-labelled PSP1peptide, control peptide, or annexin V was systematically injected into the tail vein of tumor-bearing nude mice treated with camptothecin 24 hrs before injection. The same amount of annexin V was also injected into non-camptothecin-treated tumor-bearing mice as a control. The homing of the peptides was examined after the indicated times using an optical imaging system. The white dotted circles indicate the tumors. (B) Histological examination of tumor tissues after homing of PSP1 and annexin V, performed under a fluorescence microscope. Tumor cell apoptosis was observed by TUNEL staining.

untreated cancer cells = assay: binding to normal (untreated) cancer cells, microscopy; assay type: cell-based, human; conditions: 40 μg/ml; data not shown
Method: (A) Apoptotic H460 cells in a chamber slide were incubated with 20 μg of PSP1, control peptide, or annexin V for 30 min. The cells were washed and fixed with 4% PFA before staining with DAPI. The confocal images were taken by laser confocal microscopy. (B) Normal H460 cells were subjected to incubation with the same amount of peptide or annexin V.

apoptotic H460 cells [4] = assay: confocal microscopy of binding to apoptotic H460 cells; assay type: cell-based, human; conditions: FITC-labeled, 20 μg/ml, apoptotic H460 (etoposide 50 μM), 4°C, 1 hr
[5] = phage display; ref [17]; cited from earlier work
PS liposomes = assay: SPR binding to PS liposomes
From the text: To compare the kinetics of annexin V and PSP1 peptide binding to PS liposomes, SPR spectroscopy was employed (Reichert Inc, NY, USA). PC and PS liposomes (0.8:0.2 PC:PS) were generated as previously described and were homogenously purified using a liposome mini-extruder with a 100 nm membrane filter, based on the manufacturer’s protocol (Avanti Polar Lipids). […] Briefly, phytosphingosine was immobilized by activating the carboxymethyl groups on dextran-coated chips (Reichert Life Sciences) through a reaction with N-hydroxysuccinimide (Sigma-Aldrich), followed by covalent bonding of the ligands to the chip surface via amide linkages and blocking of excess activated carboxyls with ethanolamine. The purified PS or PC liposomes were captured on the phytosphingosine layer at a flow rate of 5 μl/min in liposome immobilization buffer (10 mM Tris-HCl (pH 8.0), 100 mM NaCl, and 2 mM CaCl2). To use the PC-immobilized surface as a control, the injected PS or PC liposome volume was adjusted to an immobilization level of approximately 4000±200 RU. Different concentrations of the PSP1 peptide (0.313 to 5 μM) and annexin V (3.13 to 100 nM) in running buffer (10 mM Tris-HCl (pH 8.0), 100 mM NaCl, 2 mM CaCl2, and 62.5 μg/ml BSA) were allowed to flow over the surfaces bound to the immobilized liposomes for 3 min at a rate of 30 μl/min. The sensor surface was regenerated after each association and dissociation cycle by injecting 10 mM EDTA for 20 s, followed by 50 mM NaOH for 10 s. The interaction of the ligand and the analyte was analyzed using Scrubber 2 Biologic software (http://www.biologic.com.au/). The binding kinetics was assessed by determining the association (kon), dissociation (koff), and equilibrium (KD) constants.
The in vitro binding affinity of PSP1 and annexin V for PS was further examined using SPR analysis (Fig. 2). […] We immobilized PS liposomes on the surface of an SPR chip, applied a series of different concentrations of PSP1 or annexin V, and examined the binding kinetics. PS-specific binding was determined by subtracting binding responses to a PC liposome-coated surface from those obtained using a PS liposome-coated […] surface.
Fig 2 In vitro SPR analysis of PSP1 and annexin V binding to PS liposomes. (A) The indicated concentrations of PSP1 were injected onto the liposome-immobilized surface. Responses (RU) from the PC liposome-coated surface (reference) were subtracted from those from the PS:PC (2:8) liposome surface to monitor PS-specific binding. The equilibration binding constant (KD) and the association (Kon) and dissociation (Koff) rate constants were estimated using the Scrubber program. (B) Plots of the RU values of annexin V at the indicated concentrations.

normal H460 cells = assay: FACS binding to normal H460 cells; assay type: cell-based, human; conditions: FITC-labeled, 10 μg/ml; n = 3
Method: as §2, §3, §4

[6] = PS:PC (2:8) liposomes, PC response subtracted, Tris-HCl pH 8.0, 2 mM CaCl2, Scrubber, value from picture

For COc1cc([C@@H]2c3cc4c(cc3[C@@H](O[C@@H]3O[C@@H]5CO[C@@H](C)O[C@H]5[C@H](O)[C@H]3O)[C@H]3COC(=O)[C@H]23)OCO4)cc(OC)c1O [etoposide], the “effect of etoposide on H460 cells in words” value (H460 cells) was “without evidence of significant necrosis; also recorded: caused PS exposure; also recorded: did not significantly change the cell shape or number” and the “H460 cells undergoing apoptosis” value (H460 cells; 22 hrs, serum-free media, annexin V/PI FACS) was “more than 50%”.
For CC[C@@]1(O)C(=O)OCc2c1cc1n(c2=O)Cc2cc3ccccc3nc2-1 [camptothecin], the “in vivo apoptosis in tumors (TUNEL)” value (H460 tumors) was “increased area of in vivo apoptosis”.
With “CLSAAPSYC [AA-PSP1, mutant PSP1 peptide with alanine instead of tyrosine, …]” the “binding of PSP1 mutants to apoptotic H460 cells (FACS)” value (apoptotic H460 cells [1]) was “significantly diminished by replacement of tyrosine by alanine”.
With “NSSSVDK (also: FITC label, position not given here) [control peptide, control peptide (NSSSVDK), reference compound]” the “non-specific fluorescence in surrounding non-tumor tissues” value ([2]; Cy7.5-labeled control peptide 100 μg/200 μl i.v., camptothecin-treated tumor-bearing mice) was “surrounding non-tumor tissues absorbed fluorescence at the early time points, this non-specific signal vanished over time”, the “in vivo tumor homing” value ([2]; Cy7.5-labeled) was “did not show specific tumor-homing signals” and the “tumor-homing fluorescence signal in tumor cryosections” value [3] was “No signals were observed in tumor tissues”.
In the case of “CLSYYPSYC [PSP1, peptide-based phosphatidylserine (PS) indicator PSP1 (…)]”, the “binding to untreated cancer cells” value (untreated cancer cells) is listed as “a small degree of binding to untreated cancer cells”, the “apoptotic cell-specific signal (confocal microscopy)” value (apoptotic H460 cells [4]) is listed as “apoptotic cell-specific signals were clearly detected; also recorded: targets apoptotic tumor cells more efficiently than annexin V does” and the “interaction with PS on apoptotic cells” value [5] is listed as “specific interaction with PS on apoptotic cells”. The “duration of in vivo fluorescence signal in tumor region” value ([2]; Cy7.5-labeled, i.v. tail vein, camptothecin 10 mg/kg 24 hrs before, PSP1 10 μg/200 μl (23.16 μM), annexin V 100 μg/200 μl (14.3 μM)) was “more than 12 hrs”, the “in vivo tumor homing” value ([2]; Cy7.5-labeled) was “generated apoptosis/tumor-specific signals after cancer treatment in the animal model; also recorded: appeared higher than those of annexin V for the entire measurement period; also recorded: rapidly observed in the tumor region; also recorded: specifically homed to apoptotic cells in tumors after cancer therapy; also recorded: specifically targeted apoptotic cells in tumors following systemic administration” and the “tumor-homing fluorescence signal in tumor cryosections” value [3] was “significantly more prominent than that of annexin V”. For the same compound, the “binding to apoptotic H460 cells (FACS)” value (apoptotic H460 cells [1]; etoposide 50 μM 22 hrs, 2, 10, 20, 50 μg/ml, binding buffer 10 mM Hepes pH 7.4, 150 mM NaCl ± 2 mM CaCl2, 4°C, 1 hr) was “specifically bound to apoptotic H460 cells in a concentration-dependent manner; also recorded: specifically binds to apoptotic cells through PS exposed on the apoptotic cell surface”, the Kd (PS liposomes; PS liposomes, PC liposome response subtracted, Tris-HCl pH 8.0, 2 mM CaCl2, read-out: in vitro binding affinity (equilibrium binding constant, KD)) was 10.7 µM and the “PS binding kinetics in words” value (PS liposomes; PS liposomes, real-time association and dissociation) was “binds much more slowly to PS but, once bound, forms a more stable complex (slow dissociation) compared with annexin V; also recorded: dissociation of PSP1 was slow, even slower than that of annexin V”. The “association rate constant (Kon)” value (PS liposomes; [6]) was 5.05±3.00×10^1 M^-1S^-1 and the “dissociation rate constant (Koff)” value (PS liposomes; [6]) was 2.87±0.95×10^-4 S^-1.
For “CLSFFPSYC [FF-PSP1, mutant PSP1 peptide with phenylalanine instead of tyrosine, …]”, the “binding to normal H460 cells (FACS)” value (normal H460 cells) was “nonspecific binding to the normal cells” and the “binding of PSP1 mutants to apoptotic H460 cells (FACS)” value (apoptotic H460 cells [1]) was “bound to the apoptotic cells as much as PSP1”.
